# According to US20140011755A1, “Cardiac Glycosides for Treating Autoimmune Disease” (Department of Veterans Affairs, priority 2010, published 2014):
# Entries after “also recorded” stand apart in the source; their conditions may differ. Like-named read-outs stand apart in the source and are kept apart here.
# Columns and labels:
# [1] = cited from earlier work; for Half-life: in vivo; for Onset (m): onset of action; for Peak: time to maximal effect
# [2] = tested on: TNF-mediated NFκB activity in HeLa cells; assay: NFκB luciferase reporter assay in TNF-stimulated HeLa cells; assay type: cell-based; conditions: pre-treatment 6 hours with 0-500 nM, 50 ng/mL TNF
# Experimental: FIG. 8. […] Values represent mean light units produced. Error bars represent SEM, and statistical significance was determined by unpaired T-test. Single and double asterisks represent P-values of 0.01 or 0.001, respectively. […] Samples were harvested at designated time points and were fractionated into nuclear and cytoplasmic lysates (Pierce). Lysates were quantified using BCA (Pierce), and were equally loaded according to total protein. Membranes were probed for levels of nuclear phospho-p65 (ReIA), phospho-ReIB, and histone (histone served as loading control and fractionation method control) and cytoplasmic degradation of IκBα (beta-tubulin served as loading control and fractionation method control).
# HeLa cells were co-transfected with the reporter pNFκB-luc and control vector pTAL (Renilla) for 18 h prior to incubation with 0-500 nM cardiac glycoside for 6 h. Cells are stimulated with 50 ng/mL TNF. […] FIG. 8 B).
# [3] = CHCI3/16% aqueous methanol (MeOH); cited from earlier work
# TNF, IL-6 and IL-1beta = assay: Serum cytokine ELISA in CIA treatment groups; assay type: in vivo; conditions: serum from 3 mice per treatment group, ELISA in triplicate
# Description: FIG. 9. Serum cytokine levels are similar between vehicle and cardiac glycoside treatment groups. […] The unpaired student t-test was used to assess significance.
# [4] = tested on: collagen-induced arthritis (CIA); assay type: in vivo, DBA1/J mice; conditions: for average clinical arthritis scores compared to vehicle, prevention study: first dose one day prior to boost, 0.3 mg/kg digitoxin, 0.03 mg/kg ouabain, […] proscillaridin, 0.35 mg/kg digoxin, […] bufalin, 15 mice per group
# T cell receptor = assay type: cell-based, mice
# Experimental: (§1) Activity was monitored by ^3H-thymidine incorporation as a read-out for proliferation. […] Cell type(s) in the splenocyte population responsive to therapeutic concentrations of cardiac glycoside were determined by identifying the population of cells that responded to a dose-dependent decrease in activity in the presence of stimulant, defined as ligand(s) binding to cognate receptor(s). Activity was analyzed by: ^3H-thymidine or BrdU incorporation to monitor proliferation or by ELISA to monitor cytokine production. Splenic T lymphocytes were isolated by negative selection (MACS, Miltinyi Biotec) and are stimulated with PMA, ConA or through the TCR with anti-CD3/anti-CD28 Dynabeads (Invitrogen) and collagen II (all non-TNFR receptors/pathways). […] Peritoneal and bone marrow-derived macrophages were isolated from CIA mice in the presence of M-CSF growth factor and were stimulated with TNF and CD40 ligand (CD40L). […] Splenic B lymphocytes were isolated by negative selection (MACS, Miltinyi Biotec) and were stimulated with BAFF (BLyS), CD40L or through the BCR with anti-IgM u-chain specific antibodies.
# rheumatoid arthritis = conditions: cited from earlier work
# [5] = Serum concentration obtained with experimental dosing regimen, mouse; assay type: in vivo; conditions: 0.2 mg/kg per diem, i.p., experimentally determined
# Experimental: Dosing regimens in humans vary according to the cardiac glycoside and constitution thereof. Table 3 depicts representative dosing regimens reported in the literature compared to experimental regiments used in mice that are representative of human dosing. Successful dosing detailed in this application includes but is not limited to 0.03-0.4 mg/kg., or from 0.001 to 5 mg/kg.
# [6] = injectable versus other formulations; cited from earlier work
# [7] = tested on: anti-type II collagen antibodies; assay type: in vivo; conditions: sera of 6 mice per prevention group, ANOVA
# Experimental: FIG. 10. Cardiac glycosides reduce immunoglobulin levels in CIA mice. ELISAs for anti-type II collagen antibodies were performed on sera derived from 6 representative mice of each prevention group (A, B). Isotype specific antibodies for IgG1 and IgG2a (A) and IgM (B) were utilized. […] Statistical analysis was performed using ANOVA and asterisks indicate points at which the P-values were less than 0.001.
# The effects of the different cardiac glycoside treatments on CIA pathology was analyzed by histological scoring. Inflammatory cell infiltrate, synovial hyperplasia, pannus formation and articular cartilage and bone deterioration were evaluated in sectioned paws of treated mice at specific time-points throughout the disease course. Histopathology scores of inflammation, pannus formation and bone and cartilage erosions were conducted by a blinded investigator on toludine blue-stained cross sections of fixed leg joints from representative mice in vehicle and glycoside groups. Pathology scoring for each of the three categories are on a scale of 0-4 with grade 0=normal, 1=mild inflammation, hyperplasia of the synovial lining, cartilage destruction without bone erosion, grades 2 to 4=increasing degrees of inflammatory cell infiltrate, synovial hyperplasia, pannus formation and cartilage and bone destruction. Error bars represent SEM and statistics were performed using the Mann-Whitney test. At the endpoint, mice are bled and serum is collected from representative mice and stored at −80 C until use. To determine anti-collagen II antibody levels and to characterize isotype prevalence, bovine collagen II (Chondrex) was coated O/N at 4 C on an ELISA plate, washed and incubated with 100 uL of 1:10 dilution of each serum sample (in triplicate) for 2 h at RT. Wells were washed and incubated with anti-mouse IgM u-chain specific (Jackson), anti-mouse IgG1, or anti-mouse IgG2a (Southern Biotech) for 1 h at RT. The ELISA was developed and read using BD ELISA development kit. Statistical analysis was performed using the two-tailed ANOVA and asterisks represent P-values less than 0.01.
# [8] = tested on: collagen-induced arthritis (CIA) joints; assay type: in vivo, DBA1/J mice; conditions: cross-sectioned ankle joints, CIA prevention groups
# Experimental: FIG. 7. Cardiac glycosides reduce joint pathology in the CIA mouse model for rheumatoid arthritis. Blinded scoring was performed on histologic sections of joints harvested from mice at the end of a CIA prevention study (A-C). Joints derived from three representative mice belonging to each prevention group (A-C) were decalcified, fixed and stained with tolidine blue, followed by scoring by an examiner blinded to treatment status for the severity of synovitis (inflammation), pannus (growth of the synovial lining), and erosions of bone. (D-G) Joints derived from three representative mice belonging to each prevention group were decalcified, fixed, and stained with hematoxylin and eosin. Cross-sectioned ankle joints from vehicle (D), digitoxin (E), ouabain (F) and proscillaridin (G) treated mice are presented. Error bars represent SEM, and asterisks indicate P-values less than 0.05 by Mann-Whitney test.
# In treatment studies, mice were randomly enrolled in treatment groups and treatment commenced when the average clinical score was at or above 2. […] Daily dosing commenced upon enrollment at the abovementioned concentrations. […] Double-blinded histopathology scoring was conducted of cross-sectioned joints taken from cardiac glycoside and vehicle recipients. […] The results obtained from these animal studies indicate that cardiac glycosides are effective at reducing the clinical manifestations of disease and reducing joint pathology in mice with collagen arthritis.
# The effects of the different cardiac glycoside treatments on CIA pathology was analyzed by histological scoring. Inflammatory cell infiltrate, synovial hyperplasia, pannus formation and articular cartilage and bone deterioration were evaluated in sectioned paws of treated mice at specific time-points throughout the disease course. […] The ELISA was developed and read using BD ELISA development kit. […]
# CD40 = target: T1, CD40 (Mus musculus, UniProt P27512); assay type: cell-based, mice; conditions: pre-treatment with 3.3 or 33 nM
# T1 construct: Peritoneal and bone marrow-derived macrophages were isolated from CIA mice; endogenous in cells; host or cells: peritoneal and bone marrow-derived macrophages from CIA mice
# T1 sequence (P27512 20-289): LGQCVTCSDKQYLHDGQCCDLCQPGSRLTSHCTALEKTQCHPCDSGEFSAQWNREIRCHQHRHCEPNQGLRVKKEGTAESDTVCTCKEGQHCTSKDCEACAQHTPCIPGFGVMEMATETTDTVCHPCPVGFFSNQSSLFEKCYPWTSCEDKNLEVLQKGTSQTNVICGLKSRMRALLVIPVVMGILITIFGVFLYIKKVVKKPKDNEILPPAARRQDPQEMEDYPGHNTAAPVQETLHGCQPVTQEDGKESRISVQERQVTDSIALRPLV
# Experimental: as §1
# TNFR = assay type: cell-based, mice; conditions: pre-treatment with 3.3 or 33 nM
# Experimental: as §1
# MRL-Ipr splenic B cells = assay: ANA production by MRL-Ipr splenic B cells in vitro; assay type: cell-based, mice; conditions: B cells pre-treated with 0.8 nM mifepristone, digitoxin 33 nM
smiles,measurement,setting,value
C[C@H]1O[C@@H](O[C@H]2CC[C@@]3(C)[C@H](CC[C@@H]4[C@@H]3C[C@@H](O)[C@]3(C)[C@@H](C5=CC(=O)OC5)CC[C@]43O)C2)C[C@H](O)[C@@H]1O[C@H]1C[C@H](O)[C@H](O[C@H]2C[C@H](O)[C@H](O[C@@H]3O[C@H](CO)[C@@H](O)[C@H](O)[C@H]3O)[C@@H](C)O2)[C@@H](C)O1 [Deslanoside],Half-life,[1],33 h
same,Onset (m),[1],10-30 m
same,Peak,[1],1 to 2 h
"C[C@H]1O[C@@H](O[C@H]2[C@@H](O)C[C@H](O[C@H]3[C@@H](O)C[C@H](O[C@H]4CC[C@@]5(C)[C@H](CC[C@@H]6[C@@H]5C[C@@H](O)[C@]5(C)[C@@H](C7=CC(=O)OC7)CC[C@]65O)C4)O[C@@H]3C)O[C@@H]2C)C[C@H](O)[C@@H]1O [Digoxin, digoxin]",TNF-mediated NFκB activation (luciferase light units),[2],reduced TNF-mediated NFκB activation in a dose-dependent fashion
same,Partition Coefficient,[3],81.5
same,"Serum cytokine levels (TNF, IL-6 and IL-1beta) versus vehicle","TNF, IL-6 and IL-1beta",similar
same,Half-life,[1],36 h
same,"average clinical arthritis scores compared to vehicle, prevention study",[4],significantly reduced
same,proliferation of T cells in response to stimulation through the T cell receptor,T cell receptor,did not alter proliferation
CC(=O)O[C@H]1C[C@H](O[C@H]2[C@@H](O)C[C@H](O[C@H]3[C@@H](O)C[C@H](O[C@H]4CC[C@@]5(C)[C@H](CC[C@@H]6[C@@H]5C[C@@H](O)[C@]5(C)[C@@H](C7=CC(=O)OC7)CC[C@]65O)C4)O[C@@H]3C)O[C@@H]2C)O[C@H](C)[C@H]1O[C@@H]1O[C@H](CO)[C@@H](O)[C@H](O)[C@H]1O [Lanatoside C],Partition Coefficient,[3],16.2
CN(Cc1cnc2nc(N)nc(N)c2n1)c1ccc(C(=O)N[C@@H](CCC(=O)O)C(=O)O)cc1 [Methotrexate],patients having some response,rheumatoid arthritis,70%
same,onset of action,rheumatoid arthritis; rheumatoid arthritis patients,4-6 weeks
"C[C@@H]1O[C@@H](O[C@H]2C[C@@H](O)[C@]3(CO)[C@H]4[C@H](O)C[C@]5(C)[C@@H](C6=CC(=O)OC6)CC[C@]5(O)[C@@H]4CC[C@]3(O)C2)[C@H](O)[C@H](O)[C@H]1O [Ouabain, ouabain]",Serum conc.,[5],16 ng/mL
same,TNF-mediated NFκB activation (luciferase light units),[2],reduced TNF-mediated NFκB activation in a dose-dependent fashion
same,Partition Coefficient,[3],very low
same,bioavailability by formulation,[6],higher bioavailability with injectable formulations
same,"Serum cytokine levels (TNF, IL-6 and IL-1beta) versus vehicle","TNF, IL-6 and IL-1beta",similar
same,anti-type II collagen IgG1 level relative to vehicle,[7],reduced levels
same,anti-type II collagen IgM level relative to vehicle,[7],reduced levels
same,immune cell infiltrate into the joints (hematoxylin and eosin),[8],decreased amounts of immune cell infiltrate
same,Half-life,[1],21 h
same,Onset (m),[1],5-10 m
same,Peak,[1],0.5 to 2 h
same,"disease and inflammation (clinical score, paw thickness), dosing every three days i.p.","[4]; 0.9 mg/kg digitoxin or 0.6 mg/kg ouabain, i.p., days −3, 0, 3, 6, 9, 12 after boost",significantly less disease and inflammation
same,"onset of collagen arthritis, dosing every three days sublingual","[4]; 0.9 mg/kg digitoxin or 0.6 mg/kg ouabain, sublingual, days −3, 0, 3, 6, 9, 12 after boost",significantly inhibited the onset of collagen arthritis; also recorded: effective in preventing
same,"development of CIA (Mean Visual Arthritis Score, Mean Paw Thickness), prevention study","[4]; daily i.p. from the day prior to induction, digitoxin 0.3 mg/kg, ouabain 0.03 mg/kg, proscillaridin […]",prevented the development of CIA
same,"average clinical arthritis scores compared to vehicle, prevention study",[4],significantly reduced
same,prevention and treatment of collagen-induced arthritis (CIA),"[4]; murine model for rheumatoid arthritis, summary statement",potently prevent and treat
same,CD40L-mediated activation of macrophage through CD40,CD40,inhibits
same,TNF-mediated activation of macrophage through TNFR,TNFR,inhibits
same,proliferation of T cells in response to stimulation through the T cell receptor,"T cell receptor; non-TNFR family member, therapeutic concentrations",did not alter proliferation
C[C@]12CC[C@H](O)C[C@H]1CC[C@@H]1[C@@H]2CC[C@]2(C)[C@@H](c3ccc(=O)oc3)CC[C@]12O [bufalin],TNF-mediated NFκB activation (luciferase light units),[2],reduced TNF-mediated NFκB activation in a dose-dependent fashion
same,"Serum cytokine levels (TNF, IL-6 and IL-1beta) versus vehicle","TNF, IL-6 and IL-1beta",similar
same,"average clinical arthritis scores compared to vehicle, prevention study",[4],significantly reduced
CC#C[C@]1(O)CC[C@H]2[C@@H]3CCC4=CC(=O)CCC4=C3[C@@H](c3ccc(N(C)C)cc3)C[C@@]21C [mifepristone],effect of pre-treatment on digitoxin-specific blockade of autoantibody production,MRL-Ipr splenic B cells,relieved
